Data as given in the supplement of paper PMC4862054.

Key:
[1] = test system: HDQ-P1; test: normalised response (% of control), CellTiter-Glo; higher = more viable cells (100 = DMSO, 0 = benzethonium chloride kill control); details: incubation time: 72 h
Procedure, shortened: (§1)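 In 384-well plates holding compound at 5 concentrations in 10-fold steps over a 10,000-fold range specific to each compound, breast cancer cell lines were seeded as 20 µl suspension and incubated 72 h. CellTox Green fluorescence was measured at 485/520 nm, after which CellTiter-Glo luminescence was measured following 10 min at room temperature. Plate signals were normalised to 0.1 % DMSO (100) and a positive kill control (0), and each value is the normalised signal at a single concentration.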

[2] = test system: MDA-MB-468; test: as above; details: incubation time: 72 h
Procedure, shortened: as §1

[3] = test system: HCC1143; test: as above; details: incubation time: 72 h
Procedure, shortened: as §1

[4] = test system: BT-549; test: as above; details: incubation time: 72 h
Procedure, shortened: as §1

[5] = test system: BT-474; test: as above; details: incubation time: 72 h
Procedure, shortened: as §1

[6] = test system: MFM-223; details: 72 h
Procedure, shortened: (§2)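 For viability, cells received 2.5 µl CellTiter-Blue for 2 h at 37 °C and fluorescence was read at 560/590 nm. Before this, breast cancer cell lines in 20 µl suspension had been incubated for 72 h on 384-well plates pre-loaded with compound dissolved in 5 µl medium. EC50 was obtained from a percent-inhibition dose-response fit censored at the highest concentration, after normalisation of each plate to vehicle and a positive kill control; rows with a zero drug sensitivity score were discarded.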

[7] = test system: BT-549; details: 72 h
Protocol: (§3)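 Drug sensitivity and resistance testing (DSRT) of breast cancer cell lines in 384-well plates, 5 concentrations in 10-fold dilutions over a compound-specific 10,000-fold range. After 72 h, cytotoxicity was read by CellTox Green fluorescence and viability by CellTiter-Glo luminescence (multiplexed), normalised to DMSO and benzethonium chloride controls. EC50 is the inflection point of the fitted dose-response curve (bottom asymptote free, so it can be relative for partial curves) and is censored at the highest tested concentration. Rows with DSS 0 (no meaningful response) were excluded.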

[8] = test system: CAL-85-1; details: 72 h
Protocol: as §3

[9] = test system: MDA-MB-468; details: 72 h
Protocol: as §3

[10] = test system: MDA-MB-231; details: 72 h
Protocol: as §3

[11] = test system: SK-BR-3; details: 72 h
Procedure, shortened: (§4)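 Per-plate normalisation used 0.1 % DMSO and a positive kill control. Breast cancer cell lines (20 µl suspension) were seeded into 384-well plates containing compound at 5 concentrations in 10-fold steps across a compound-specific 10,000-fold range, incubated for 72 h, and read first for CellTox Green fluorescence (485/520 nm), then for CellTiter-Glo luminescence. EC50 was fitted from the dose-response curves and censored at the top concentration.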

[12] = test system: MCF-10A; details: 72 h
Procedure, shortened: as §4

[13] = test system: CAL-85-1; details: 72 h; remark: listed apart in the source
Procedure, shortened: as §4

[14] = test system: CAL-120; details: 72 h
Procedure, shortened: as §4

[15] = test system: MDA-MB-231; details: 72 h; remark: listed apart in the source
Procedure, shortened: as §4

[16] = test system: HCC1143; details: 72 h
Procedure, shortened: as §4

[17] = test system: BT-549; details: 72 h; remark: listed apart in the source
Procedure, shortened: as §4

[18] = test system: Hs578T; details: 72 h
Procedure, shortened: as §4

[19] = test system: HCC1937; details: 72 h
Procedure, shortened: as §4

[20] = test system: MDA-MB-436; details: 72 h
Procedure, shortened: as §4

[21] = test system: CAL-51; details: 72 h
Procedure, shortened: as §2

[22] = test system: CAL-148; details: 72 h
Procedure, shortened: as §4

[23] = test system: SK-BR-3; details: 72 h; remark: listed apart in the source
Procedure, shortened: as §2

[24] = test system: MDA-MB-468; details: 72 h; remark: listed apart in the source
Procedure, shortened: as §2

[25] = test system: HCC1143; details: 72 h; remark: listed apart in the source
Procedure, shortened: as §2

[26] = test system: BT-549; details: 72 h; remark: listed apart in the source
Procedure, shortened: as §2

[27] = test system: BT-474; details: 72 h
Procedure, shortened: as §2

[28] = test system: Hs578T; details: 72 h; remark: listed apart in the source
Procedure, shortened: as §2

[29] = test system: MDA-MB-436; details: 72 h; remark: listed apart in the source
Procedure, shortened: as §2

[30] = test system: CAL-148; details: 72 h; remark: listed apart in the source
Protocol: as §3

[31] = test system: HDQ-P1; details: 72 h
Procedure, shortened: as §2

| SMILES | normalised response [1] | normalised response [2] | normalised response [3] | normalised response [4] | normalised response [5] | other results |
| --- | --- | --- | --- | --- | --- | --- |
| C#Cc1cccc(Nc2ncnc3cc(OCCOC)c(OCCOC)cc23)c1 [Erlotinib] (1000 nM) | 69.3% | 82.9% | 94.7% | 100% | 96.3% |  |
| COc1cc([C@@H]2c3cc4c(cc3[C@@H](O[C@@H]3O[C@@H]5CO[C@@H](C)O[C@H]5[C@H](O)[C@H]3O)[C@H]3COC(=O)[C@H]23)OCO4)cc(OC)c1O [Etoposide] (1000 nM) | 97.6% | 87.3% | 86.2% | 76.7% | 93.2% |  |
| C[C@]12CC[C@@H]3c4ccc(O)cc4C[C@@H](CCCCCCCCC[S+]([O-])CCCC(F)(F)C(F)(F)F)[C@H]3[C@@H]1CC[C@@H]2O (stereo partly drawn) [Fulvestrant] |  |  |  |  |  | EC50, CellTiter-Blue viability [6]: 0.0745 µM |
| O=P1(NCCCl)OCCCN1CCCl (stereo not drawn) [Ifosfamide] (1000 nM) | 104% | 90.9% | 94.7% | 96.1% | 93.3% |  |
| CC(C)Cn1cnc2c(N)nc3ccccc3c21 [Imiquimod] |  |  |  |  |  | EC50, CellTox Green [7]: > 2.5 µM |
| N#CCNC(=O)c1ccc(-c2ccnc(Nc3ccc(N4CCOCC4)cc3)n2)cc1 [Momelotinib] |  |  |  |  |  | EC50, CellTox Green [8]: 1.63 µM; EC50, CellTox Green [9]: 5.27 µM; EC50, CellTox Green [10]: 0.0772 µM; EC50, CellTox Green [7]: 3.3 µM; EC50, CellTiter-Glo [11]: 2.9 µM; EC50, CellTiter-Glo [12]: 6.59 µM; EC50, CellTiter-Glo [13]: 2.16 µM; EC50, CellTiter-Glo [14]: 1.38 µM; EC50, CellTiter-Glo [15]: 5.19 µM; EC50, CellTiter-Glo [16]: 1.57 µM; EC50, CellTiter-Glo [17]: 2.11 µM; EC50, CellTiter-Glo [18]: 2.24 µM |
| CC1(C)NC(=O)N(c2ccc([N+](=O)[O-])c(C(F)(F)F)c2)C1=O [Nilutamide] (1000 nM) | 97.7% | 119% | 101% | 91.2% | 99.8% |  |
| CCCCCCCCCCCCCCCCCCOP(=O)([O-])OC1CC[N+](C)(C)CC1 [Perifosine] |  |  |  |  |  | EC50, CellTiter-Glo [19]: 2.08 µM; EC50, CellTiter-Glo [12]: > 2.5 µM; EC50, CellTiter-Glo [20]: > 2.5 µM |
| Cc1ccc(C(=O)Nc2ccc(CN3CCN(C)CC3)c(C(F)(F)F)c2)cc1C#Cc1cnc2cccnn12 [Ponatinib] (100 nM) | 92.1% | 120% | 97.6% | 107% | 93% |  |
| Cn1c(Nc2ccc(C(F)(F)F)cc2)nc2cc(Oc3ccnc(-c4ncc(C(F)(F)F)[nH]4)c3)ccc21 [RAF265] (100 nM) | 75% | 85.5% | 95.9% | 91.1% | 99.3% |  |
| CNCc1ccc(-c2[nH]c3cc(F)cc4c3c2CCNC4=O)cc1 [Rucaparib] |  |  |  |  |  | EC50, CellTox Green [9]: 0.00201 µM; EC50, CellTiter-Blue viability [21]: 8.87 µM; EC50, CellTiter-Blue viability [6]: 5.06 µM; EC50, CellTiter-Glo [22]: 0.501 µM; EC50, CellTiter-Glo [17]: > 10 µM |
| CNCc1ccc(-c2[nH]c3cc(F)cc4c3c2CCNC4=O)cc1 [Rucaparib] (1000 nM) | 98.8% | 93.5% | 94.1% | 100% | 92.3% |  |
| N[C@@H](CSC(c1ccccc1)(c1ccccc1)c1ccccc1)C(=O)O [S-trityl-L-cysteine] |  |  |  |  |  | EC50, CellTiter-Blue viability [23]: 1.13 µM; EC50, CellTiter-Blue viability [24]: 1.41 µM; EC50, CellTiter-Blue viability [25]: > 40 µM; EC50, CellTiter-Blue viability [26]: 18.3 µM; EC50, CellTiter-Blue viability [27]: 10.8 µM; EC50, CellTiter-Blue viability [28]: 1.91 µM; EC50, CellTiter-Blue viability [29]: 4.58 µM |
| N[C@@H](CSC(c1ccccc1)(c1ccccc1)c1ccccc1)C(=O)O [S-trityl-L-cysteine] (4000 nM) | 99.5% | 105% | 94% | 98.6% | 102% |  |
| CN(N=O)C(=O)N[C@@H](C=O)[C@@H](O)[C@H](O)[C@H](O)CO [Streptozocin] (1000 nM) | 107% | 104% | 112% | 98.2% | 107% |  |
| O=C1CCC(N2C(=O)c3ccccc3C2=O)C(=O)N1 (stereo not drawn) [Thalidomide] |  |  |  |  |  | EC50, CellTox Green [30]: > 10 µM |
| O=C1CCC(N2C(=O)c3ccccc3C2=O)C(=O)N1 (stereo not drawn) [Thalidomide] (1000 nM) | 101% | 106% | 95.9% | 96.3% | 102% |  |
| CN[C@@H]1C[C@H]2O[C@@](C)([C@@H]1OC)n1c3ccccc3c3c4c(c5c6ccccc6n2c5c31)C(=O)N[C@H]4O [UCN-01] (1000 nM) | 18.8% | 5.24% | 17.3% | 17.8% | 12.4% |  |
| Clc1ccc(Nc2nnc(Cc3ccncc3)c3ccccc23)cc1 [Vatalanib] (1000 nM) | 109% | 103% | 97% | 100% | 95.2% |  |
| CCC1=C[C@@H]2CN(C1)Cc1c([nH]c3ccccc13)[C@@](C(=O)OC)(c1cc3c(cc1OC)N(C)[C@H]1[C@@](O)(C(=O)OC)[C@H](OC(C)=O)[C@]4(CC)C=CCN5CC[C@]31[C@@H]54)C2 [Vinorelbine] (1000 nM) | 76.2% | 30.3% | 56.9% | 41.8% | 55.7% |  |
| Oc1nc(-c2ccc(C(F)(F)F)cc2)nc2c1CSCC2 [XAV-939] |  |  |  |  |  | EC50, CellTiter-Blue viability [31]: 2.09 µM; EC50, CellTiter-Blue viability [25]: > 10 µM; EC50, CellTiter-Glo [15]: 0.172 µM |
| Oc1nc(-c2ccc(C(F)(F)F)cc2)nc2c1CSCC2 [XAV-939] (1000 nM) | 101% | 82% | 88.8% | 91.8% | 79.8% |  |
